The test system of test [1] is CCRF-CEM. Description: Antiproliferative activity against human CCRF-CEM cells at 1 uM after 24 hrs. In kind it is functional, cell-based.
Test [2] deals with CCRF-CEM. In words: Antiproliferative activity against human CCRF-CEM cells at 1 uM after 96 hrs. Type of test: functional.

Calls of active or inactive are those of the source. No cut-off for these calls is given here.

`CCCCCCCCCCCCCC(=O)OC[C@H]1O[C@@H](n2ccc(N)nc2=O)[C@@H](OC(=O)CCCCCCCCCCCCC)[C@@H]1O`: the result with CCRF-CEM [1] was Active. For the same molecule, the Activity in the test with CCRF-CEM [2] was 76%.
In the case of `CCSCCCCCCCCCCCC(=O)O[C@H]1[C@H](O)[C@@H](CO)O[C@H]1n1ccc(N)nc1=O`, the outcome in the test on CCRF-CEM [1] was Active. The Activity with CCRF-CEM [2] worked out at 36%.
The corresponding values for `CCCCCCCCCCCCCC(=O)O[C@H]1[C@H](O)[C@@H](CO)O[C@H]1n1ccc(N)nc1=O` are “Active” and 36%.
Consider `CCCCCCCCCCCCCC(=O)OC[C@H]1O[C@@H](n2ccc(N)nc2=O)[C@@H](O)[C@@H]1O`, for which the outcome in the test with CCRF-CEM [2] was inactive.
Same read-out and setting: the entry for `CCSCCCCCCCCCCCC(=O)OC[C@H]1O[C@@H](n2ccc(N)nc2=O)[C@@H](O)[C@@H]1O` is “inactive”.

Source of the values: ChEMBL document CHEMBL1250486, “Synthesis and evaluation of fatty acyl ester derivatives of cytarabine as anti-leukemia agents” (2010).
